Here are results for one compound from publication PMC6934184, “Selective DNA-PKcs inhibition extends the therapeutic index of localized radiotherapy and chemotherapy” (The Journal of Clinical Investigation, 2019).

For the assay, the target named is T1, ACVR2A (Homo sapiens, UniProt P27037).
T1 construct: purchased Thermo Fisher Scientific (Life Technologies) SelectScreen
The assay is described as follows: SelectScreen LanthaScreen. Format: binding. The following applies: read-out: % displacement. In short, it runs like this:
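SelectScreen broad panel; activity (Z'LYTE, Adapta) plus binding formats. ATP: Km app for CSF1R Z'LYTE; 10 for CAMK1 Adapta. Readout = % per kinase.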
(Time-resolved FRET reads energy transfer from a long-lived donor to a nearby acceptor.)

T1 sequence (P27037 20-513): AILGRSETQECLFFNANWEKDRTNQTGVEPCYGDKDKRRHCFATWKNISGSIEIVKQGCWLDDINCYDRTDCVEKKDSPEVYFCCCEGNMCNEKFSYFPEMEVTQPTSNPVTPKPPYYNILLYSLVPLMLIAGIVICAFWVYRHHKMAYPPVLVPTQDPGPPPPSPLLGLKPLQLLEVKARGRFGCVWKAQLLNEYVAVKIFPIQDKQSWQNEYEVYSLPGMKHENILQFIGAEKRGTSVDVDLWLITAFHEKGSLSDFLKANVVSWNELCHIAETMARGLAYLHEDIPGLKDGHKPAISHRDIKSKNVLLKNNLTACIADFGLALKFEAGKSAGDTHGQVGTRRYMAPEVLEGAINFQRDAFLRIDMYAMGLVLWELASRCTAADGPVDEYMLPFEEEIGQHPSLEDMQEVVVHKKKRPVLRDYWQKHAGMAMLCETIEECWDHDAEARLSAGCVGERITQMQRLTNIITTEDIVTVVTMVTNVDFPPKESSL

Consider `CN(C(=O)CN1CCOCC1)c1ccc2sc3c(-c4cccc5c(=O)cc(N6CC7CCC(C6)O7)oc45)cccc3c2c1` [NU5455], for which the inhibition at 1 µM was 2.5%.
